Measurements as given in the NIST ThermoML archive (doi:10.1016/j.fluid.2013.06.041).

Test: xn = mol fraction of the nth substance listed
Settings: 101 kPa, Liquid, Small sample (50 mg) DSC

OCCCCO [1,4-butanediol] + O
excess molar heat capacity [J/K/mol]
Settings | 283.15 K | 293.15 K | 298.15 K | 303.15 K | 313.15 K
x1 = 0.00538 | 1.24 | 1.14 | 1.06 | 1.01 | 1.1
x1 = 0.01312 | 2.19 | 2.16 | 2.08 | 2.01 | 1.92
x1 = 0.02505 | 3.41 | 3.49 | 3.5 | 3.52 | 3.58
x1 = 0.02518 | 3.17 | 3.34 | 3.32 | 3.28 | 3.33
x1 = 0.03528 | 4.45 | 4.6 | 4.58 | 4.53 | 4.52
x1 = 0.04842 | 5.39 | 5.61 | 5.64 | 5.65 | 5.67
x1 = 0.0574 | 6.22 | 6.53 | 6.59 | 6.62 | 6.68
x1 = 0.07589 | 6.43 | 7.15 | 7.34 | 7.46 | 7.6
x1 = 0.08236 | 6.7 | 7.51 | 7.71 | 7.85 | 8.09
x1 = 0.09032 | 6.66 | 7.65 | 7.89 | 8.04 | 8.25
x1 = 0.1005 | 6.94 | 8.03 | 8.38 | 8.63 | 8.9
x1 = 0.1396 | 6.87 | 8.33 | 8.81 | 9.17 | 9.74
x1 = 0.1403 | 6.85 | 8.37 | 8.87 | 9.24 | 9.77
x1 = 0.1868 | 6.33 | 8.24 | 9.84 | 10.39 | 11.21
x1 = 0.2961 | 5.63 | 7.75 | 8.91 | 9.42 | 10.66
x1 = 0.3972 | 4.75 | 6.83 | 7.7 | – | 10.31
x1 = 0.4965 | 4.04 | 5.92 | 6.8 | 7.63 | 9.13
x1 = 0.5659 | 3.29 | 5.08 | 5.88 | 6.64 | 8.11
x1 = 0.7004 | 2.95 | 4.32 | 4.96 | 5.57 | 6.8
x1 = 0.7964 | 2.92 | 3.47 | 3.89 | 4.33 | 5.14
x1 = 0.8873 | 1.38 | 2.21 | 2.5 | 2.79 | 3.63
x1 = 0.9398 | 0.81 | 1.14 | 1.34 | 1.56 | 2.03

OCCCO [propan-1,3-diol] + O
excess molar heat capacity [J/K/mol]
Settings | 283.15 K | 293.15 K | 298.15 K | 303.15 K | 313.15 K
x1 = 0.02483 | 1.28 | 1.4 | 1.43 | 1.44 | 1.46
x1 = 0.03693 | 1.89 | 2.08 | 2.13 | 2.16 | 2.26
x1 = 0.05016 | 2.35 | 2.72 | 2.83 | 2.9 | 2.99
x1 = 0.07515 | 2.54 | 3.22 | 3.44 | 3.59 | 3.8
x1 = 0.1401 | 2.24 | 3.61 | 4.11 | 4.52 | 5.08
x1 = 0.1504 | 2.2 | 3.67 | 4.21 | 4.64 | 5.27
x1 = 0.299 | 1.59 | 3.18 | 3.84 | 4.43 | 5.44
x1 = 0.3982 | 1.31 | 2.66 | 3.28 | 3.85 | 4.81
x1 = 0.4976 | 1.26 | 2.34 | 2.82 | 3.25 | 4.02
x1 = 0.5955 | 1.15 | 1.92 | 2.33 | 2.74 | 3.48
x1 = 0.7025 | – | 1.71 | 1.95 | 2.2 | 2.64
x1 = 0.7902 | 0.98 | 1.19 | 1.3 | 1.4 | 1.49
x1 = 0.9455 | 0.48 | 0.53 | 0.58 | 0.61 | 0.55
